Experimental data from paper PMC10350924, “Design, Synthesis, and Pharmacological Characterization of a Potent Soluble Epoxide Hydrolase Inhibitor for the Treatment of Acute Pancreatitis” (Journal of Medicinal Chemistry, 2023).

Test system: PGE2 production in LPS-stimulated J774 murine macrophages
Test: PGE2 production in LPS-stimulated J774 macrophages
Format: cell-based
Conditions: Mus musculus; J774, 2 h pre-treatment 0.1–10 μM, LPS 10 μg/mL 24 h; read-out: IC50 for reduction of PGE2 levels
Procedure: Murine monocyte/macrophage J774 cell line was obtained from the American Type Culture Collection (ATTC TIB 67). The cell line was grown in adhesion in Dulbecco’s modified Eagle’s medium (DMEM) supplemented with glutamine (2 mM, Aurogene Rome, Italy), Hepes (25 mM, Aurogene Rome, Italy), penicillin (100 U/mL, Aurogene Rome, Italy), streptomycin (100 μg/mL, Aurogene Rome, Italy), fetal bovine serum (FBS, 10%, Aurogene Rome, Italy), and sodium pyruvate (1.2%, Aurogene Rome, Italy) (DMEM completed). The cells were plated at a density of 1 × 10^6 cells in 75 cm^2 culture flasks and maintained at 37 °C under 5% CO2 in a humidified incubator until 90% confluence. The culture medium was changed every 2 days. Before a confluent monolayer appeared, subculturing cell process was carried out. Cells (0.5 × 10^6 cells/mL) were pretreated for 2 h in the absence or presence of 28 (0.1–10 μM) and then stimulated, for 24 h, with lipopolysaccharide (LPS) from E. coli, Serotype 0111:B4, (10 μg/mL; 100 μL in DMEM completed with FBS, Sigma-Aldrich, Milan, Italy).[42] The supernatants were collected for the measurement of PGE2 levels by ELISA assay (Cayman Chemical, Vinci-Biochem, Vinci, Italy).

SMILES: CC(C)c1ccc(Cn2ccc3cc(NC(=O)NCC45C[C@H]6C[C@@H](C4)C[C@@H](C5)C6)ccc32)cc1 [Compound 28, 1-(((3R,5R,7R)-Adamantan-1-yl)methyl)-3-(1-(4-isopropylbenzyl)-1H-indol-5-yl)urea]
- IC50: > 10 µM
